Laboratory results from patent publication US20050164370A1 (priority 2003, published 2005).
Where two headings read alike, the source gives them in different places.

Tests used:
Type in all cases: cell-based, yeast
[1] = tested on: transformed cells TM182-CYC1-ADHIPT4; settings: DOHLU+Glu, 30° C. for 24 hours
Procedure: (§1) Each of the transformed cells TM182-CYC1-CYC1IPT4, TM182-CYC1-ADHIPT4, TM182-CYC1-CYC1IPT5, TM182-CYC1-ADHIPT5, TM182-CRE1-CYC1IPT4, and TM182-CRE1-ADHIPT5 obtained in Example 16 was inoculated in 200 mL of DOHLU+Gal culture medium, and was pre-cultured at 30° C. for 36 hours. The thus obtained culture solutions were diluted with DOHLU+Glu culture medium so that OD600 became 0.200, and then the diluted ones were further diluted with DOHLU+Glu culture medium at a dilution rate of 1/200 to obtain diluted pre-cultured solutions.
(§2) A 96-well assay plate was prepared by filling each well with 1 μL of a DMSO solution of an examinee substance (Abscisic acid or 6-Benzyl aminopurine). In this regard, it is to be noted that the DMSO solution of a examinee substance was prepared so that the concentration thereof became 200 ppm. Simultaneously, an assay plate was prepared by filling each well with 1 μL of DMSO as a blank section.
(§3) Each of the diluted pre-cultured solutions was added in a volume of 100 μL per each well of both of the assay plates, and was cultured at 30° C. for 24 hours. After incubation, the turbidity of each well was measured using a plate reader.
as §1, with “TM182-CRE1-ADHIPT4, TM182-AHK2-CYC1IPT4, TM182-AHK2-CYC1IPT5” for “TM182-CRE1-CYC1IPT4,”, “TM182-AHK2-ADHIPT5” for “TM182-CRE1-ADHIPT5”
as §3

[2] = tested on: transformed cells TM182-CYC1-CYC1IPT4; settings: DOHLU+Glu, 30° C. for 24 hours
Procedure: as §1, §2, §3
as §1, with “TM182-CRE1-ADHIPT4, TM182-AHK2-CYC1IPT4, TM182-AHK2-CYC1IPT5” for “TM182-CRE1-CYC1IPT4,”, “TM182-AHK2-ADHIPT5” for “TM182-CRE1-ADHIPT5”
as §3

[3] = tested on: transformed cells TM182-CYC1-CYC1IPT5; assay: Liquid culture of transformed cell TM182-CYC1-CYC1IPT5 with examinee substance, absorbance; settings: DOHLU+Glu, 30° C. for 24 hours
Procedure: (§4) The thus obtained culture solutions were diluted with DOHLU+Glu culture medium so that OD600 became 0.200, and then the diluted ones were further diluted with DOHLU+Glu culture medium at a dilution rate of 1/200 to obtain diluted pre-cultured solutions.
as §2
(§5) Each of the diluted pre-cultured solutions was added in a volume of 100 μL per each well of both of the assay plates, and was cultured at 30° C. for 24 hours. After incubation, the turbidity of each well was measured using a plate reader. The absorbance (OD600) of each of the culture solutions of the transformed cells containing the examinee substance was shown in Table 3. […] Further, the growth speeds of the transformed cells TM182-CRE1-CYC1IPT4 and TM182-CRE1-ADHIPT5 in the culture medium to which 6-Benzyl aminopurine was added were faster than those in the culture medium to which only DMSO was added.
as §5, with “4.” for “3.”, “TM182-CRE1-ADHIPT4, TM182-AHK2-CYC1IPT4, TM182-AHK2-CYC1IPT5” for “TM182-CRE1-CYC1IPT4”, “TM182-AHK2-ADHIPT5” for “TM182-CRE1-ADHIPT5”

[4] = tested on: transformed cells TM182-CRE1-CYC1IPT4; assay: Liquid culture of transformed cell TM182-CRE1-CYC1IPT4 with examinee substance, absorbance; settings: Table 3, TM182-CRE1-CYC1-IPT4, 1 μL of 200 ppm DMSO solution per 100 μL, DOHLU+Glu, 30° C. for 24 hours
Procedure: as §4, §2, §5

[5] = tested on: transformed cells TM182-CRE1-ADHIPT5; settings: Table 3, TM182-CRE1-ADH-IPT5, 1 μL of 200 ppm DMSO solution per 100 μL, DOHLU+Glu, 30° C. for 24 hours
Procedure: as §1, §2, §3

[6] = tested on: transformed cells TM182-CRE1-ADHIPT4; assay: Liquid culture of transformed cell TM182-CRE1-ADHIPT4 with examinee substance, absorbance; settings: Table 4, TM182-CRE1-ADH-IPT4, 1 μL of 200 ppm DMSO solution per 100 μL, DOHLU+Glu, 30° C. for 24 hours
Procedure: as §4, §2
as §5, with “4.” for “3.”, “TM182-CRE1-ADHIPT4, TM182-AHK2-CYC1IPT4, TM182-AHK2-CYC1IPT5” for “TM182-CRE1-CYC1IPT4”, “TM182-AHK2-ADHIPT5” for “TM182-CRE1-ADHIPT5”

[7] = tested on: transformed cells TM182-AHK2-CYC1IPT4; assay: Liquid culture of transformed cell TM182-AHK2-CYC1IPT4 with examinee substance, absorbance; settings: Table 4, TM182-AHK2-CYC1-IPT4, 1 μL of 200 ppm DMSO solution per 100 μL, DOHLU+Glu, 30° C. for 24 hours
Procedure: as §4, §2
as §5, with “4.” for “3.”, “TM182-CRE1-ADHIPT4, TM182-AHK2-CYC1IPT4, TM182-AHK2-CYC1IPT5” for “TM182-CRE1-CYC1IPT4”, “TM182-AHK2-ADHIPT5” for “TM182-CRE1-ADHIPT5”

[8] = tested on: transformed cells TM182-AHK2-CYC1IPT5; assay: Liquid culture of transformed cell TM182-AHK2-CYC1IPT5 with examinee substance, absorbance; settings: Table 4, TM182-AHK2-CYC1-IPT5, 1 μL of 200 ppm DMSO solution per 100 μL, DOHLU+Glu, 30° C. for 24 hours
Procedure: as §4, §2
as §5, with “4.” for “3.”, “TM182-CRE1-ADHIPT4, TM182-AHK2-CYC1IPT4, TM182-AHK2-CYC1IPT5” for “TM182-CRE1-CYC1IPT4”, “TM182-AHK2-ADHIPT5” for “TM182-CRE1-ADHIPT5”

[9] = tested on: transformed cells TM182-AHK2-ADHIPT5; assay: Liquid culture of transformed cell TM182-AHK2-ADHIPT5 with examinee substance, absorbance; settings: Table 4, TM182-AHK2-ADH-IPT5, 1 μL of 200 ppm DMSO solution per 100 μL, DOHLU+Glu, 30° C. for 24 hours
Procedure: as §4, §2
as §5, with “4.” for “3.”, “TM182-CRE1-ADHIPT4, TM182-AHK2-CYC1IPT4, TM182-AHK2-CYC1IPT5” for “TM182-CRE1-CYC1IPT4”, “TM182-AHK2-ADHIPT5” for “TM182-CRE1-ADHIPT5”

[10] = Table 3, TM182-CYC1-ADH-IPT4, 1 μL of 200 ppm DMSO solution per 100 μL
[11] = Table 4, TM182-CYC1-ADH-IPT4, 1 μL of 200 ppm DMSO solution per 100 μL
[12] = Table 3, TM182-CYC1-CYC1-IPT4, 1 μL of 200 ppm DMSO solution per 100 μL
[13] = Table 4, TM182-CYC1-CYC1-IPT4, 1 μL of 200 ppm DMSO solution per 100 μL
[14] = Table 3, TM182-CYC1-CYC1-IPT5, 1 μL of 200 ppm DMSO solution per 100 μL
[15] = Table 4, TM182-CYC1-CYC1-IPT5, 1 μL of 200 ppm DMSO solution per 100 μL

Row | SMILES | absorbance (OD600) of the culture solution [1, 10] | absorbance (OD600) of the culture solution [1, 11] | absorbance (OD600) of the culture solution [2, 12] | absorbance (OD600) of the culture solution [2, 13] | absorbance (OD600) of the culture solution [3, 14] | absorbance (OD600) of the culture solution [3, 15] | absorbance (OD600) of the culture solution [4] | absorbance (OD600) of the culture solution [5] | absorbance (OD600) of the culture solution [6] | absorbance (OD600) of the culture solution [7] | absorbance (OD600) of the culture solution [8] | absorbance (OD600) of the culture solution [9]
1 | CC1=CC(=O)CC(C)(C)[C@@]1(O)/C=C/C(C)=C\C(=O)O [Compound A, Abscisic acid] | 0.040 | 0.035 | 0.042 | 0.035 | 0.041 | 0.036 | 0.102 | 0.131 | 0.045 | 0.194 | 0.069 | 0.297
2 | c1ccc(CNc2ncnc3nc[nH]c23)cc1 [Compound B, 6-Benzyl aminopurine] | 0.041 | 0.034 | 0.042 | 0.034 | 0.043 | 0.035 | 0.260 | 0.293 | 0.058 | 0.339 | 0.430 | 0.427
